{"source": "patent US7153858B2", "about": "“Arylpiperazinyl compounds” (Epix Delaware, Inc., priority 2003, dated 2006)", "assay_type_in_all_cases": "in vivo", "key": {"129 svev mice [1]": {"test_system": "129 svev mice", "test": "Stress-Induced Hyperthermia (SIH)", "settings": "1 hr before test", "from_the_text": "(§1) Young adult male C57B16/J mice from Jackson Laboratory, Bar Harbor, Me. were used in the Elevated Plus Maze; 129 svev mice from Taconic, Germantown, N.Y. were used in the Stress-induced Hyperthermia, Open Field, and the Tail Suspension tests, and DBA/2J mice from Jackson Laboratory, Bar Harbor, Me. were used in the Forced Swim test. All mice were received at the age of 6 weeks and were assigned unique identification numbers. Animals were housed 4 per cage in polycarbonate cages with filter tops, cagemate identification maintained by tail marks. Animals were acclimated for 7 days and given food and water ad libitum. Mice were examined prior to initiation of the study at 8 weeks of age to assure adequate health and suitability. During the course of the study, 12-hour light/12-hour dark cycles were maintained with the light on at 7:00 a.m. The room temperature was maintained between 20 and 23° C. with a relative humidity maintained between 30% and 70%. Chow and water were provided ad libitum.\n(§2) In each test, animals were randomly assigned across treatment groups and balanced by cage number. Ten animals were used in each treatment group. Mice for the Open Field and Stress-induced hyperthermia studies were handled once daily for 2 consecutive days prior to the testing. Mice assigned to the Elevated plus maze experiment were not handled to increase the stress level at the time of the testing.\n(§3) All compounds were dissolved in sterile injectable water, which served as the vehicle control. All solutions were prepared on the day of the experiments. […] In all tests except for the tail suspension (TS) test, drugs were administered acutely; in the TS test, Compound A was administered once daily for 3 days (test day inclusive) prior to testing. Thirty minutes pretreatment time was used in all tests except for SIH in which case compounds were given to the animals one hr before the test.\nMice have a natural hyperthermic response to stress, which has been proposed as a measure of stress-induced anxiety (Olivier, Zethof, Ronken & van der Heyden, European Journal of Pharmacology 342(2–3): 177–82, 1998). Anxiolytics are known to decrease this hyperthermic response to stress. This test involves two measures of rectal temperature repeated in the same animal within a 10 min period. On the day prior to testing, animals were brought to the experimental room 1 hr prior to scheduled lights out and singly housed overnight with food and water ad libitum. On the morning of the experiment, animals were first injected with treatment compound or vehicle. One hr post treatment, the animal was removed from the holding cage and held in a supine position and had rectal temperature measured by using a rectal probe attached to a PhysiTemp thermometer (Fisher Scientific). For each animal tested, the rectal probe was cleaned with an alcohol pad and lubricated with sterile K-Y jelly and slowly inserted into the animal's rectum at a length of approximately 3–5 mm. The probe remained within the animal's rectum for approximately 5 sec or until body temperature reached stability, and the baseline rectal temperature (T1) was recorded. The animal was immediately placed back to the holding cage and after a 10-min interval a second rectal temperature (T2) was taken using the same procedure as T1. The animal was then returned to the home cage and at the completion of the experiment returned to the colony room.\n(§4) All data were analyzed by comparing the groups treated with the test substance to the vehicle control or reference treated groups. Statistical analysis was performed by ANOVA followed by Fisher's post-hoc test where appropriate. […] Data are represented as the means and standard error to the mean (s.e.m)."}, "[2]": {"test_system": "129 svev mice (tail suspension), DBA/2J mice (forced swim)", "test": "Tail suspension and forced swim test", "settings": "PO; tail suspension: once daily for 3 days", "from_the_text": "as §1\nas §3, with “Thirty minutes pretreatment time was used in all tests except for SIH in which case compounds were given to the animals one hr before the test.” left out"}, "129 svev mice [3]": {"test_system": "129 svev mice", "test": "Open Field (OF), general motor activity", "settings": "40 min session", "from_the_text": "as §1, §2, §3\nThe open field activity monitor system (Med Associates, Inc.) measured general motor activity. The test was performed under normal lighting conditions (400 lux). Mice were brought into the experimental room and allowed at least 1 hr of acclimation. Thirty min after treatment, each mouse was placed into the testing enclosure (l×w×h: 27 cm×27 cm×20 cm) with an infrared beam array that automatically monitors the animal's activity. Eight animals of balanced treatment were tested at one time. The test session lasted 40 min and animals were returned to the home cages at the end of the session. The critical measures of this test includes locomotion (total distance traveled), rearing (vertical activity), number of center entries and percent time spent in the center area of the OF arena.\nas §4"}, "C57B16/J mice": {"test_system": "C57B16/J mice", "test": "Elevated Plus Maze (EPM)", "settings": "for Closed Arm Entries / Total Entries / Open Arm Time / Proportion Open Arm Entries: vs vehicle", "from_the_text": "as §1, §2, §3\nThe elevated plus maze is a test commonly used to assess anxiety in rodents. The maze consists of two closed arms (l×w×h: 15 cm×6 cm×30 cm) and two open arms (6 cm w×30 cm l) forming a cross, with a square center platform (6×6 cm). Rodents naturally fear open spaces and tend to spend more time in the closed arms. Anxiolytics will attenuate this fear of open spaces and will increase the number of time spent in open arms. All visible surfaces are made of a black acrylic. Each arm of the maze is placed on a support column 50 cm above the floor. The light intensity was ˜100 lux above the open arms and ˜70 lux above the closed arms. Animals were brought to the experimental room at least 1 hr before the test in the home cage (food and water available). Mice were placed in the center of the elevated plus maze facing an open arm, tested once, one at a time for a 5 min test. The time in the open/closed arms and the number of entries in the open/closed arms were recorded via video camera and used as a measure of anxiety. Mice were returned to the home cage after testing and then to the colony room.\nas §4"}, "Coloboma mice": {"test_system": "Coloboma mice", "test": "Open Field, hyperlocomotor activity of Coloboma mutant mice (ADHD model)", "settings": "vs vehicle", "from_the_text": "The mice used in the current study are the offspring of breeding pairs (C3H/HeSnj-Cm) originally purchased from Jackson Laboratory, Bar Harbor, Me. Of the 48 mice tested, 22 were male and 26 were female, at age between 12–20 weeks old. These animals were weaned at 21 days age and were housed in 2 to 4 littermates per cage in our animal facility where standard animal husbandry was maintained. The colony room was kept under 12-hour light/12-hour dark cycles with the lights on at 7:00 a.m. Temperature was maintained between 20 and 23° C. with a relative humidity maintained between 30% and 70%. Animals received food chow and water provided ad libitum.\nAll compounds were dissolved in sterile injectable water, which served as the vehicle control. All solutions were prepared on the day of the experiments. Compound A as well as its vehicle (water) was given to animals orally (PO) in a volume of 10 ml/kg body weight; the reference compound was given to animals intraperitoneally (IP). […]\nThe study was conducted over two consecutive days with animals tested between 10:00 a.m. and 5:00 p.m. on each day. […] The results were recorded automatically and processed by microcomputer.\nThe open field activity monitor system (Med Associates, Inc.) measured general motor activity. […]\nAll data were analyzed by comparing the groups treated with the test substance to the vehicle control or reference treated groups. […]"}, "[4]": {"settings": "reference buspirone 20 mg/kg IP"}, "[5]": {"settings": "reference buspirone 20 mg/kg IP, listed as buspirone"}, "[6]": {"settings": "reference buspirone 3, 10 and 20 mg/kg PO"}}, "note": "“Also recorded” adds a separate entry of the source. Counter-ions that a name gives are not always drawn."}
{"smiles": "CC(=O)Nc1cccc(N2CCN(CCCCNS(=O)(=O)CC3CCCCC3)CC2)c1", "note": "[Compound A, N-{3-[4-(4-Cyclohexylmethanesulfonylamino-butyl)-piperazin-1-yl]-phenyl}-acetamide HCl]", "values": [{"measurement": "Basal Rectal Temperature", "setting": "129 svev mice [1]; 1 mg/kg PO, HCl", "result": "did not show significant effects; also recorded: no change"}, {"measurement": "Temperature Change (stress-induced hyperthermia)", "setting": "129 svev mice [1]; 1 mg/kg PO, HCl", "result": "did not show significant effects; also recorded: no change"}, {"measurement": "Basal Rectal Temperature", "setting": "129 svev mice [1]; 3 mg/kg PO, HCl", "result": "did not show significant effects; also recorded: no change"}, {"measurement": "Temperature Change (stress-induced hyperthermia)", "setting": "129 svev mice [1]; 3 mg/kg PO, HCl", "result": "did not show significant effects; also recorded: no change"}, {"measurement": "Basal Rectal Temperature", "setting": "129 svev mice [1]; 20 mg/kg PO, HCl", "result": "significant decrease"}, {"measurement": "Temperature Change (stress-induced hyperthermia)", "setting": "129 svev mice [1]; 20 mg/kg PO, HCl", "result": "significant decrease"}, {"measurement": "antidepressive properties", "setting": "[2]", "result": "did not appear to have antidepressive properties"}, {"measurement": "Frequency of Zone Crosses", "setting": "129 svev mice [3]; 1 mg/kg PO", "result": "No change"}, {"measurement": "Percent Distance in Center", "setting": "129 svev mice [3]; 1 mg/kg PO", "result": "No change"}, {"measurement": "Percent Time in Center", "setting": "129 svev mice [3]; 1 mg/kg PO", "result": "No change"}, {"measurement": "Total Distance (Horizontal)", "setting": "129 svev mice [3]; 1 mg/kg PO", "result": "No change"}, {"measurement": "Vertical Activity (Rearing)", "setting": "129 svev mice [3]; 1 mg/kg PO", "result": "No change"}, {"measurement": "Frequency of Zone Crosses", "setting": "129 svev mice [3]; 3 mg/kg PO", "result": "no change"}, {"measurement": "Percent Distance in Center", "setting": "129 svev mice [3]; 3 mg/kg PO", "result": "no change"}, {"measurement": "Percent Time in Center", "setting": "129 svev mice [3]; 3 mg/kg PO", "result": "no change"}, {"measurement": "Total Distance (Horizontal)", "setting": "129 svev mice [3]; 3 mg/kg PO", "result": "no change"}, {"measurement": "Vertical Activity (Rearing)", "setting": "129 svev mice [3]; 3 mg/kg PO", "result": "no change"}, {"measurement": "Frequency of Zone Crosses", "setting": "129 svev mice [3]; 20 mg/kg PO", "result": "no change"}, {"measurement": "Percent Distance in Center", "setting": "129 svev mice [3]; 20 mg/kg PO", "result": "no change"}, {"measurement": "Percent Time in Center", "setting": "129 svev mice [3]; 20 mg/kg PO", "result": "no change"}, {"measurement": "Total Distance (Horizontal)", "setting": "129 svev mice [3]; 20 mg/kg PO", "result": "no change"}, {"measurement": "Vertical Activity (Rearing)", "setting": "129 svev mice [3]; 20 mg/kg PO", "result": "no change"}, {"measurement": "Closed Arm Entries", "setting": "C57B16/J mice; 3 mg/kg PO", "result": "no change"}, {"measurement": "Total Entries", "setting": "C57B16/J mice; 3 mg/kg PO", "result": "no change"}, {"measurement": "Open Arm Time", "setting": "C57B16/J mice; 3 mg/kg PO, HCl", "result": "significant anxiolytic-like effect; also recorded: increase"}, {"measurement": "Proportion Open Arm Entries", "setting": "C57B16/J mice; 3 mg/kg PO, HCl", "result": "significant anxiolytic-like effect; also recorded: increase"}, {"measurement": "Closed Arm Entries", "setting": "C57B16/J mice; 10 mg/kg PO", "result": "no change"}, {"measurement": "Total Entries", "setting": "C57B16/J mice; 10 mg/kg PO", "result": "no change"}, {"measurement": "Open Arm Time", "setting": "C57B16/J mice; 10 mg/kg PO, HCl", "result": "did not reach statistical significance; also recorded: no change"}, {"measurement": "Proportion Open Arm Entries", "setting": "C57B16/J mice; 10 mg/kg PO, HCl", "result": "did not reach statistical significance; also recorded: no change"}, {"measurement": "Closed Arm Entries", "setting": "C57B16/J mice; 20 mg/kg PO", "result": "no change"}, {"measurement": "Total Entries", "setting": "C57B16/J mice; 20 mg/kg PO", "result": "no change"}, {"measurement": "Open Arm Time", "setting": "C57B16/J mice; 20 mg/kg PO, HCl", "result": "did not reach statistical significance; also recorded: no change"}, {"measurement": "Proportion Open Arm Entries", "setting": "C57B16/J mice; 20 mg/kg PO, HCl", "result": "did not reach statistical significance; also recorded: no change"}, {"measurement": "hyperlocomotor activity (Distance Traveled)", "setting": "Coloboma mice; doses of 1 and 20 mg/kg PO, 30 min pretreatment", "result": "decreased the hyperlocomotor activity"}]}
{"smiles": "O=C1CC2(CCCC2)CC(=O)N1CCCCN1CCN(c2ncccn2)CC1", "note": "[Buspirone, reference compound]", "values": [{"measurement": "Basal Rectal Temperature", "setting": "129 svev mice [1]; [4]", "result": "decrease"}, {"measurement": "Temperature Change (stress-induced hyperthermia)", "setting": "129 svev mice [1]; [4]", "result": "decrease"}, {"measurement": "Basal Rectal Temperature", "setting": "129 svev mice [1]; [5]", "result": "significantly decreased"}, {"measurement": "Temperature Change (stress-induced hyperthermia)", "setting": "129 svev mice [1]; [5]", "result": "significantly decreased"}, {"measurement": "Frequency of Zone Crosses", "setting": "129 svev mice [3]; reference buspirone PO", "result": "no change"}, {"measurement": "Percent Distance in Center", "setting": "129 svev mice [3]; reference buspirone PO", "result": "no change"}, {"measurement": "Percent Time in Center", "setting": "129 svev mice [3]; reference buspirone PO", "result": "no change"}, {"measurement": "Total Distance (Horizontal)", "setting": "129 svev mice [3]; reference buspirone PO", "result": "no change"}, {"measurement": "Vertical Activity (Rearing)", "setting": "129 svev mice [3]; reference buspirone PO", "result": "decreased the number of rears; also recorded: decrease"}, {"measurement": "Closed Arm Entries", "setting": "C57B16/J mice; 20 mg/kg PO", "result": "significantly decreased"}, {"measurement": "Total Entries", "setting": "C57B16/J mice; 20 mg/kg PO", "result": "significant decrease"}, {"measurement": "Closed Arm Entries", "setting": "C57B16/J mice; 20 mg/kg PO, listed as BUS", "result": "decrease (BUS, 20)"}, {"measurement": "Total Entries", "setting": "C57B16/J mice; 20 mg/kg PO, listed as BUS", "result": "decrease (BUS, 20)"}, {"measurement": "anxiolytic-like effect in the EPM", "setting": "C57B16/J mice; [6]", "result": "failed to produce a significant anxiolytic-like effect"}, {"measurement": "Open Arm Time", "setting": "C57B16/J mice; [6]", "result": "no effect"}]}
{"smiles": "C[C@H](N)Cc1ccccc1", "note": "[d-Amphetamine, reference compound]", "values": [{"measurement": "locomotor activity (Distance Traveled)", "setting": "Coloboma mice; 4 mg/kg IP, 15 min before the test", "result": "significantly decreased"}]}
